The NIST ThermoML archive (doi:10.1021/acs.jced.8b00157)

Experiment: an = ratio of the nth substance listed
Conditions: 100 kPa, Liquid, Buoyancy - hydrostatic balance

[F][Al]([F])[F] [aluminum fluoride] + [F-].[K+]
mass density [kg/m3]
Conditions	a2 = 1.3	a2 = 1.5
1091.2 K	1750	–
1091.6 K	–	1772
1091.7 K	1750	–
1092 K	–	1772
1092.2 K	1749	–
1092.3 K	1749	1772
1092.5 K	1748	–
1092.6 K	1748	–
1092.7 K	–	1772
1093.2 K	–	1771
1093.5 K	1747	1771
1093.8 K	1748	–
1093.9 K	–	1771
1094.2 K	1747	–
1094.3 K	–	1771
1094.7 K	–	1770
1094.8 K	1747	–
1094.9 K	1747	–
1095 K	1746	–
1095.1 K	–	1770
1095.3 K	1746	–
1095.5 K	1745	1770
1095.8 K	–	1769
1096.1 K	1745	–
1096.2 K	1745	–
1096.3 K	–	1769
1096.4 K	1744	–
1096.6 K	–	1769
1096.7 K	1744	–
1097 K	–	1769
1097.1 K	1744	–
1097.2 K	1744	–
1097.4 K	–	1768
1097.6 K	1744	–
1097.9 K	–	1768
1098.1 K	1743	1767
1098.3 K	1743	–
1098.5 K	–	1767
1098.6 K	1743	–
1098.8 K	1742	–
1098.9 K	1742	–
1099 K	–	1767
1099.4 K	–	1767
1099.5 K	1742	–
1099.6 K	1742	–
1099.8 K	–	1766
1100.1 K	1741	–
1100.2 K	–	1766
1100.4 K	1741	–
1100.6 K	1741	1766
1100.9 K	1740	1766
1101 K	1741	–
1101.2 K	1740	1765
1101.7 K	1740	1765
1101.8 K	1739	–
1101.9 K	1739	–
1102.1 K	–	1765
1102.4 K	–	1765
1102.5 K	1739	–
1102.9 K	–	1764
1103.4 K	–	1764
1103.6 K	–	1763
1104.1 K	–	1763
1104.5 K	–	1763
1104.8 K	–	1763
1105.2 K	–	1762
1105.7 K	–	1762
1105.9 K	–	1762
1106.4 K	–	1762
1106.7 K	–	1761
1107.3 K	–	1761
1107.7 K	–	1761
1108 K	–	1761
1108.5 K	–	1760
1108.8 K	–	1760
1109.3 K	–	1759
1109.7 K	–	1759
1110.1 K	–	1759
1110.5 K	–	1759
1111 K	–	1758
1111.3 K	–	1758
1111.7 K	–	1758
1112.1 K	–	1757
1112.6 K	–	1757
1112.9 K	–	1757
1113.2 K	–	1757
1113.7 K	–	1756
1114.2 K	–	1756
1114.6 K	–	1755
1114.9 K	–	1755
1115.3 K	–	1755
1115.7 K	–	1754
1116.1 K	–	1754
1116.5 K	–	1754
1117 K	–	1754
1117.4 K	–	1753
1117.8 K	–	1753
1118.3 K	–	1753
1118.7 K	–	1752
1119.2 K	–	1752
1119.4 K	–	1751
1119.9 K	–	1751
1120.3 K	–	1751
1120.6 K	–	1751
1121.2 K	–	1750
1121.5 K	–	1750
1122 K	–	1750
1122.4 K	–	1750
1122.8 K	–	1749
1123.3 K	–	1749
